53 compounds from patent US8283358B2, “N-sulfonamido polycyclic pyrazolyl compounds” (Elan Pharmaceuticals, Inc., priority 2008, dated 2012) can be followed below.

Molecules are shown by their SMILES.

The first assay deals with T1, gamma-secretase (partially purified extract of IMR-32 cell membranes; substrate MBP-C125 Swe fusion protein, cleavage at the Aβ40 site) (Homo sapiens, UniProt P49768).
T1 construct: a partially purified extract of IMR-32 cell membranes as the gamma-secretase enzyme preparation; endogenous in cells; host or cells: IMR-32 cell membranes, partially purified extract
As to the kind of experiment: Gamma-secretase APP enzyme assay (Example A). It is filed as biochemical. As to conditions: class symbols; assay described in Example A; read-out: γAPP IC50. From the text: The gamma-secretase APP enzyme assay was designed to measure the specific proteolytic cleavage of an APP substrate (MBP-C125 Swe fusion protein) at the Aβ40 site. […] This assay involved two steps beginning with the enzymatic reaction generating a cleavage product that was captured with an immobilized antibody specific for the neo-epitope Aβ40 site. The captured cleavage product was then detected in a sandwich ELISA assay with a biotinylated reporter antibody that is specific to Aβ(17-28). Streptavidin-linked alkaline phosphatase was then added that would generate a fluorescent signal proportional to the amount of cleavage product.
This warmed solution of BigCHAPS (N,N-Bis(3-D-gluconamidopropyl)cholamide) detergent was used to dissolve Brain Extract Type-V (lipid containing a minimum of 40% phosphatidylethanolamine) from Sigma (St. Louis, Mo.) to a concentration of 8 mg/ml. This solution containing BigCHAPS and lipid at 8 mg/ml is then diluted to 0.53 mg/ml lipid with a pre-warmed solution of Hepes and sodium chloride.
Gamma-secretase was then added to a 96-well micro-titre plate and then incubated with various concentrations of inhibitor for 30 minutes at 37° C. MBPC125 substrate was then added to initiate the reaction that would run for two hours at 37° C. The reaction was quenched with the addition of SDS to a final concentration of 0.1% and then 100 μl of the reaction mixture was transferred to a capture ELISA plate and incubated overnight at 4° C. Detection of the cleavage product was performed using a standard sandwich ELISA assay and quantified using a six point standard curve.
Regarding `Cn1cc(C2CC3Cc4[nH]ncc4C(C2)N3S(=O)(=O)c2ccc(Cl)cc2)nn1` (single isomer, unassigned) [compound 137], the IC50 is more than 1000 nM.
Same read-out and setting: next, `Cn1cc(C2CC3Cc4[nH]ncc4C(C2)N3S(=O)(=O)c2ccc(Cl)cc2)nn1` (single isomer, unassigned) [compound 138]: 500 to 999 nM; `N#Cc1ccc2c(c1)C1Cc3n[nH]cc3C2N1S(=O)(=O)c1ccc(C(F)(F)F)nc1` (single isomer, unassigned) [compound 172]: more than 1000 nM.
Turning to `N#Cc1ccc2c(c1)C1Cc3n[nH]cc3C2N1S(=O)(=O)c1ccc(C(F)(F)F)nc1` (single isomer, unassigned) [compound 174], the 50% inhibitory concentration (IC50) is less than 100 nM.
Still for that read-out and setting: the value for `O=S(=O)(c1ccc(C(F)(F)F)nc1)N1C2Cc3[nH]ncc3C1c1cc(F)ccc12` (single isomer, unassigned) [compound 179] was 500 to 999 nM; that for `O=S(=O)(c1ccc(C(F)(F)F)nc1)N1C2Cc3[nH]ncc3C1c1cc(F)ccc12` (single isomer, unassigned) [compound 180] was less than 100 nM.
`O=S(=O)(c1ccc(C(F)(F)F)nc1)N1C2Cc3n[nH]cc3C1c1cccc(F)c12` (single isomer, unassigned) [compound 184]: the IC50 was in the range of 500 to 999 nM.
Same read-out and setting: next, `O=S(=O)(c1ccc(C(F)(F)F)nc1)N1C2Cc3n[nH]cc3C1c1cccc(F)c12` (single isomer, unassigned) [compound 185]: less than 100 nM.
Still for that read-out and setting: next, `O=C1c2[nH]ncc2C2c3cccc(F)c3C1N2S(=O)(=O)c1ccc(C(F)(F)F)nc1` (single isomer, unassigned) [compound 192]: less than 100 nM.
Regarding `O=C1c2[nH]ncc2C2c3cccc(F)c3C1N2S(=O)(=O)c1ccc(C(F)(F)F)nc1` (single isomer, unassigned) [compound 193], the half-inhibitory concentration (IC50) was 500 to 999 nM.
Same read-out and setting: next, `O=S(=O)(c1ccc(C(F)(F)F)nc1)N1C2Cc3[nH]ncc3C1c1ccc(Cl)cc12` (single isomer, unassigned) [compound 223]: 500 to 999 nM; `O=S(=O)(c1ccc(C(F)(F)F)nc1)N1C2Cc3[nH]ncc3C1c1ccc(Cl)cc12` (single isomer, unassigned) [compound 224]: less than 100 nM; `O=S(=O)(c1ccc(Cl)cc1)N1C2Cc3[nH]ncc3C1c1c(F)cccc12` (single isomer, unassigned) [compound 230]: more than 1000 nM.
Regarding `O=S(=O)(c1ccc(Cl)cc1)N1C2Cc3[nH]ncc3C1c1c(F)cccc12` (single isomer, unassigned) [compound 231], the IC50 is less than 100 nM.
Consider `O=S(=O)(c1ccc(C(F)(F)F)nc1)N1C2Cc3[nH]ncc3C1c1c(Cl)cccc12` (single isomer, unassigned) [compound 232], for which the 50% inhibitory concentration (IC50) is 500 to 999 nM.
`O=S(=O)(c1ccc(C(F)(F)F)nc1)N1C2Cc3[nH]ncc3C1c1c(Cl)cccc12` (single isomer, unassigned) [compound 233]: the IC50 was less than 100 nM.
In the case of `O=S(=O)(c1ccc(C(F)(F)F)nc1)N1C2Cc3[nH]ncc3C1c1cc(-c3ccc(F)cc3)ccc12` (single isomer, unassigned) [compound 244], the IC50 was more than 1000 nM.
With `O=S(=O)(c1ccc(C(F)(F)F)nc1)N1C2Cc3[nH]ncc3C1c1cc(-c3ccc(F)cc3)ccc12` (single isomer, unassigned) [compound 245], the half-maximal inhibitory concentration (IC50) was 100 to 499 nM.
With `O=S(=O)(c1ccc(C(F)(F)F)nc1)N1C2Cc3[nH]ncc3C1c1cc(C3CC3)ccc12` (single isomer, unassigned) [compound 246], the 50% inhibitory concentration (IC50) is more than 1000 nM.
On the same count and under the same terms, next, `O=S(=O)(c1ccc(C(F)(F)F)nc1)N1C2Cc3[nH]ncc3C1c1cc(C3CC3)ccc12` (single isomer, unassigned) [compound 247]: less than 100 nM.
Same read-out and setting: next, `O=S(=O)(c1ccc(C(F)(F)F)nc1)N1C2Cc3n[nH]cc3C1c1nc(Br)ccc12` (single isomer, unassigned) [compound 248]: less than 100 nM; `O=S(=O)(c1ccc(C(F)(F)F)nc1)N1C2Cc3n[nH]cc3C1c1nc(Br)ccc12` (single isomer, unassigned) [compound 249]: more than 1000 nM.
On the same count and under the same terms, next, `O=S(=O)(c1ccc(C(F)(F)F)cc1)N1C2c3cn[nH]c3C(F)C1c1cccc(F)c12` (single isomer, unassigned) [compound 262]: more than 1000 nM; `O=S(=O)(c1ccc(C(F)(F)F)cc1)N1C2c3cn[nH]c3C(F)C1c1cccc(F)c12` (single isomer, unassigned) [compound 263]: less than 100 nM; `O=S(=O)(c1ccc(C(F)(F)F)cc1)N1C2C=C(C3CC3)C1c1c[nH]nc1C2` (centres unmarked) [compound 44]: less than 100 nM.
For the compound `O=S(=O)(c1ccc(C(F)(F)F)cc1)N1C2Cc3n[nH]cc3C1C(C1CC1)C2` (centres unmarked) [compound 45], the IC50 was less than 100 nM.
On the same count and under the same terms, next, `O=S(=O)(c1ccc(C(F)(F)F)cc1)N1C2Cc3[nH]ncc3C1C=C2c1ccc(F)cc1` (centres unmarked) [compound 60]: 100 to 499 nM; `O=S(=O)(c1ccc(C(F)(F)F)cc1)N1C2Cc3[nH]ncc3C1C(c1ccc(F)cc1)C2` (centres unmarked) [compound 61]: less than 100 nM.
Same read-out and setting: next, `O=C1c2n[nH]cc2C2c3cc(F)c(F)cc3C1N2S(=O)(=O)c1ccc(C(F)(F)F)cc1` (centres unmarked) [compound 69]: less than 100 nM; `O=C1c2[nH]ncc2C2c3ccccc3C1N2S(=O)(=O)c1ccc(C(F)(F)F)cc1` (centres unmarked) [compound 71]: less than 100 nM; `O=S(=O)(c1ccc(C(F)(F)F)cc1)N1C2Cc3[nH]ncc3C1c1ccccc12` (centres unmarked) [compound 72]: more than 1000 nM.
Same read-out and setting: next, `O=S(=O)(c1ccc(C(F)(F)F)cc1)N1C2c3cc(F)c(F)cc3C1C(F)(F)c1n[nH]cc12` (centres unmarked) [compound 77]: less than 100 nM.
With `O=S(=O)(c1ccc(C(F)(F)F)nc1)N1C2Cc3ccccc3C1c1c[nH]nc1C2` (centres unmarked) [compound 88], the IC50 is less than 100 nM.
On the same count and under the same terms, next, `O=S(=O)(c1ccc(C(F)(F)F)cc1)N1C2Cc3[nH]ncc3C1c1cc(F)c(F)cc12` (centres unmarked) [compound 95]: less than 100 nM; `O=S(=O)(c1ccc(C(F)(F)F)nc1)N1C2Cc3[nH]ncc3C1c1ccccc12` (centres unmarked) [compound 98]: less than 100 nM; `O=S(=O)(c1ccc(C(F)(F)F)cc1)N1C2Cc3[nH]ncc3C1c1cccnc12` (centres unmarked) [compound 100]: less than 100 nM.
The same measure, in the same setting: the value for `O=C1c2n[nH]cc2C2c3c(F)cccc3C1N2S(=O)(=O)c1ccc(C(F)(F)F)cc1` (centres unmarked) [compound 103] was less than 100 nM; that for `O=C1c2n[nH]cc2C2c3cccc(F)c3C1N2S(=O)(=O)c1ccc(C(F)(F)F)cc1` (centres unmarked) [compound 104] was less than 100 nM.
Take `O=S(=O)(c1ccc(C(F)(F)F)cc1)N1C2Cc3n[nH]cc3C1CC(c1ccc(Br)cc1)C2` (centres unmarked) [compound 106]: the half-maximal inhibitory concentration (IC50) was less than 100 nM.
Still for that read-out and setting: next, `O=S(=O)(c1ccc(Cl)cc1)N1C2Cc3[nH]ncc3C1CC(c1ccncn1)C2` (centres unmarked) [compound 107]: less than 100 nM.
In the case of `O=S(=O)(c1ccc(C(F)(F)F)nc1)N1C2Cc3[nH]ncc3C1CC(c1ccc3c(c1)OCO3)C2` (centres unmarked) [compound 108], the half-inhibitory concentration (IC50) was less than 100 nM.
Consider `O=S(=O)(c1ccc(C(F)(F)F)cc1)N1C2Cc3[nH]ncc3C1CC(c1ccc(-c3cscn3)cc1)C2` (centres unmarked) [compound 116], for which the 50% inhibitory concentration (IC50) was less than 100 nM.
Consider `NC1CCCCC1Nc1ccc(C2CC3Cc4n[nH]cc4C(C2)N3S(=O)(=O)c2ccc(C(F)(F)F)cc2)cc1` (centres unmarked) [compound 117], for which the concentration for half-maximal inhibition (IC50) is more than 1000 nM.
As to `O=S(=O)(c1ccc(C(F)(F)F)cc1)N1C2Cc3[nH]ncc3C1c1cnccc12` (centres unmarked) [compound 120], the IC50 is more than 1000 nM.
Still for that read-out and setting: the value for `O=S(=O)(c1ccc(C(F)(F)F)cc1)N1C2c3c[nH]nc3C(F)(F)C1c1c(F)cccc12` (centres unmarked) [compound 121] was less than 100 nM; that for `O=S(=O)(c1ccc(C(F)(F)F)cc1)N1C2c3c[nH]nc3C(F)(F)C1c1cccc(F)c12` (centres unmarked) [compound 123] was less than 100 nM.
`O=S(=O)(c1ccc(C(F)(F)F)cc1)N1C2Cc3[nH]ncc3C1CC(c1ccc(-n3cccn3)cc1)C2` (centres unmarked) [compound 124]: the IC50 is less than 100 nM.
Still for that read-out and setting: the value for `O=S(=O)(c1ccc(C(F)(F)F)cc1)N1C2Cc3n[nH]cc3C1CC(c1cccc(Br)c1)C2` (centres unmarked) [compound 125] was less than 100 nM.

Still in this assay, the particulars now being: γAPP IC50 (nM), class symbols; assay described in Example A.
Compound `O=S(=O)(c1ccc(C(F)(F)F)cc1)N1C2Cc3n[nH]cc3C1c1c(F)cccc12` (single isomer, unassigned) [compound 114] registered an IC50 of 500 to 999 nM.
Compound `O=S(=O)(c1ccc(C(F)(F)F)cc1)N1C2Cc3n[nH]cc3C1c1c(F)cccc12` (single isomer, unassigned) [compound 115] registered an IC50 of less than 100 nM.
Still for that read-out and setting: next, `O=S(=O)(c1ccc(C(F)(F)F)nc1)N1C2Cc3[nH]ncc3C1c1ncc(F)cc12` (single isomer, unassigned) [compound 259]: more than 1000 nM; `O=S(=O)(c1ccc(C(F)(F)F)nc1)N1C2Cc3[nH]ncc3C1c1ncc(F)cc12` (single isomer, unassigned) [compound 260]: less than 100 nM; `O=S(=O)(c1ccc(C(F)(F)F)cc1)N1C2Cc3n[nH]cc3C1c1c(F)cccc12` (centres unmarked) [compound 96]: less than 100 nM.
